Measured values as given in ChEMBL document CHEMBL3137386, “DNDi T. cruzi fenarimol series dataset from which preclinical candidate EPL-BS1246 was identified (see also related datasets CHEMBL2448688 and CHEMBL3137440)”.
Converted amounts (≈) assume the structure as drawn. “And” between values parts separate entries of the source, which are not always exact repeats. Equal entries are not always repeated.

Assays:
[1] = DNDI: Lipophilicity (gLogD) at pH 3; format: physicochemical; conditions: buffer
Cytochrome P450 3A4 [2] = target: T1, Cytochrome P450 3A4 (Homo sapiens, UniProt P08684); test: (§1) DNDI: CYP Inhibition; format: ADME
Trypanosoma cruzi [3] = test: (§2) DNDI: Chagas in vitro; format: functional, Tulahuen C4 (LacZ)
[4] = DNDI: Metabolism; format: ADME, Microsome; conditions: human, microsomes; for hepatic extraction ratio: read-out: EH
[5] = tested on: Trypanosoma brucei rhodesiense; test: DNDI: HAT in vitro; format: functional, organism-based; conditions: ATCC 30027
Cytochrome P450 3A4 [6] = target: T1, Cytochrome P450 3A4; test: as §1; format: ADME; remark: listed apart in the source
[7] = DNDI: Solubility in 0.01M HCl at pH 2 determined by nephelometry; format: physicochemical; conditions: for solubility kinetic: 0.01 M HCl
L6 = test: (§3) DNDI: Cytotoxicity against L-6 rat myoblasts from skeletal muscle; format: toxicity, cell-based, Muscle tissue; conditions: l6
[8] = as §3; format: toxicity, cell-based, Muscle tissue, L6; conditions: rat, L6 rat skeletal muscle myoblasts
Trypanosoma cruzi [9] = test: as §2; format: functional, organism-based, Tulahuen C4 (LacZ)
[10] = DNDI: Lipophilicity (gLogD) at pH 7.4; format: physicochemical; conditions: buffer
[11] = DNDI: Solubility in phosphate buffer at pH 6.5 determined by nephelometry; format: physicochemical
[12] = Trypanosoma cruzi, Tulahuen C4 (LacZ)

T1 sequence (P08684 whole entry): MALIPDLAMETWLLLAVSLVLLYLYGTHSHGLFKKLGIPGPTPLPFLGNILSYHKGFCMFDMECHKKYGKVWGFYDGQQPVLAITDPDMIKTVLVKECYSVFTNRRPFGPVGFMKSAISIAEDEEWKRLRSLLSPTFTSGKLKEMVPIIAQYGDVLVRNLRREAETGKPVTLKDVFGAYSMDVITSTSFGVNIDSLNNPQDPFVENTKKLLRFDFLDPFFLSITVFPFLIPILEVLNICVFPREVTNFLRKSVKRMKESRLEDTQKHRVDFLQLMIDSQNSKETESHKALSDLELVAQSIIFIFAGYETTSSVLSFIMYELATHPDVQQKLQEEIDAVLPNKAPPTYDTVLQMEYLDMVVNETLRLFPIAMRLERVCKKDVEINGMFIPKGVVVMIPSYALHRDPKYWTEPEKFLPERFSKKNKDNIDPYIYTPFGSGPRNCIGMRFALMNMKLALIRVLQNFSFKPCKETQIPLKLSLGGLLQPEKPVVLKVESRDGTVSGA

Compound | chromatographic logD [1] | IC50 (Cytochrome P450 3A4 [2]) | IC90 (Trypanosoma cruzi [3]) | Clint [4] | EH [4] | half-life [4] | microsomal CLint [4] | t (1 / 2) [4] | hepatic extraction ratio [4] | IC50 [5] | IC50 (Cytochrome P450 3A4 [6]) | solubility kinetic [7] | Kinetic ([7]; buffer) | IC50 (L6) | IC50 [8] | IC50 (Trypanosoma cruzi [9]) | chromatographic logD [10] | IC50 (Trypanosoma cruzi [9]; [12]) | IC90 (Trypanosoma cruzi [3]; [12]) | solubility kinetic [11]
O=C(C(c1ccc(Cl)cc1)c1cccnc1)N1CCN(c2ccc(C(F)(F)F)cn2)CC1 (stereo not drawn) | 3.8 | > 20 µM | > 0.1 µM and 0.401 µM | 28 µL/min/mg and 30 µL/min/mg | 0.61 and 0.63 | 41 min | 42 µL/min/mg | 63 min and 57 min | 0.7 | > 10 µM | 6.6 µM | > 100 µg/mL | 25 µg/mL | 59.3 µM | 57 µM | – | – | – | – | –
N#Cc1ccc(C(C(=O)N2CCN(c3ccc(C(F)(F)F)cn3)CC2)c2cccnc2)cc1 (stereo not drawn) | 3.1 | > 20 µM | 0.0565 µM and 0.0465 µM and > 0.1 µM | 21 µL/min/mg and 23 µL/min/mg | 0.56 and 0.54 | 60 min | 29 µL/min/mg | 83 min and 77 min | 0.62 | > 10 µM | – | > 100 µg/mL | – | 78.7 µM | > 100 µM | 0.023 µM and 0.012 µM and > 0.1 µM | – | – | – | –
CS(=O)(=O)c1ccc(N2CCN(C(=O)C(c3ccc(Cl)cc3)c3cccnc3)CC2)cc1 (stereo not drawn) | 2.3 | 19 µM | 0.214 µM and > 0.1 µM | 84 µL/min/mg and 53 µL/min/mg and 38 µL/min/mg | 0.75 and 0.68 | – | – | 21 min and 33 min and 46 min | 0.82 | > 10 µM | 7.1 µM | 25 µg/mL (≈ 53.2 µM) | – | 61.5 µM | > 100 µM | – | 2.9 | – | – | –
O=S(=O)(Cc1ccccc1)Nc1cnccc1N1CCN(c2ccc(C(F)(F)F)cc2)CC1 | – | – | – | – | – | – | – | – | – | > 10 µM | – | – | – | – | > 100 µM | – | – | 0.018 µM | 0.029 µM | –
CC(C)(C)OC(=O)N1CCN(C(=O)C(c2ccc(C#N)cc2)c2cccnc2)CC1 (stereo not drawn) | – | – | – | – | – | – | – | – | – | > 10 µM | – | – | – | – | > 100 µM | – | – | 0.066 µM | > 0.091 µM | –
CS(=O)(=O)c1ccc(N2CCN(C(=O)C(c3ccc(Cl)cc3)c3cncnc3)CC2)cc1 (stereo not drawn) | 2.6 | > 20 µM | – | 34 µL/min/mg and 69 µL/min/mg and 40 µL/min/mg | 0.69 and 0.66 | 50 min | – | 25 min and 43 min | 0.79 | > 10 µM | – | 25 µg/mL (≈ 53.1 µM) | – | – | > 100 µM | 0.0635 µM and > 0.1 µM | 2.6 | 0.0783 µM | > 0.1 µM | 6.3 µg/mL (≈ 13.4 µM)
O=C(C(c1ccc(Cl)cc1)c1cncnc1)N1CCN(c2ccc(C(F)(F)F)nc2)CC1 (stereo not drawn) | 3.4 | > 20 µM | – | – | – | 31 min | 56 µL/min/mg | – | 0.76 | > 10 µM | – | 12.5 µg/mL (≈ 27.1 µM) | – | – | > 100 µM | – | 3.3 | 0.253 µM | > 0.1 µM | 12.5 µg/mL (≈ 27.1 µM)
O=C(C(c1ccc(Cl)cc1)c1cncnc1)N1CCN(c2ccc(C(F)(F)F)cn2)CC1 (stereo not drawn) | 3.9 | 18 µM | – | – | – | 23 min | 76 µL/min/mg | – | 0.81 | > 10 µM | – | 50 µg/mL (≈ 108 µM) | – | – | 52.5 µM | – | 3.9 | 0.161 µM | > 0.1 µM | 6.3 µg/mL (≈ 13.6 µM)
O=C(C(c1ccc(Cl)cc1)c1cncnc1)N1CCN(c2ccc(C(F)(F)F)cc2)CC1 (stereo not drawn) | 4.2 | 20 µM | – | – | – | 30 min | 59 µL/min/mg | – | 0.77 | > 10 µM | – | 3.1 µg/mL (≈ 6.73 µM) | – | – | 51.3 µM | – | 4.2 | 0.118 µM | > 0.1 µM | 3.1 µg/mL (≈ 6.73 µM)
O=C(c1ccc(Cl)cc1)N1CCN(C(=O)C(c2ccc(Cl)cc2)c2cccnc2)CC1 (stereo not drawn) | – | – | – | – | – | – | – | – | – | > 10 µM | – | – | – | – | > 100 µM | – | – | 0.022 µM | > 0.1 µM | –
O=C(C(c1ccc(Cl)cc1)c1cccnc1)N1CCN(Cc2ccccc2C(F)(F)F)CC1 (stereo not drawn) | – | 15 µM | – | – | – | 4 min | 460 µL/min/mg | – | 0.96 | > 10 µM | – | – | – | – | 54.2 µM | – | – | > 0.1 µM | > 0.1 µM | –
